The results in this text go back to PMC9474705 (British journal of pharmacology, 2022).

One assay deals with β2AR (β2AR stable cells) (Homo sapiens, UniProt P07550). Kind of assay: [3H]DHA competition on membranes. The format is binding.
A further assay concerns the target β2AR-RlucII (Homo sapiens, UniProt P07550). Kind of assay: BRET Gs. It counts as cell-based. The following applies: agonist, […] min, mini-Gs. In general terms: BRET reads energy transfer from a luciferase to a nearby fluorophore.
Another assay addresses β1AR-RlucII (Homo sapiens, UniProt P08588). Kind of assay: BRET Gs. The following applies: agonist, […] min, mini-Gs. The format is cell-based.

β2AR (β2AR stable cells), sequence (P07550 whole entry): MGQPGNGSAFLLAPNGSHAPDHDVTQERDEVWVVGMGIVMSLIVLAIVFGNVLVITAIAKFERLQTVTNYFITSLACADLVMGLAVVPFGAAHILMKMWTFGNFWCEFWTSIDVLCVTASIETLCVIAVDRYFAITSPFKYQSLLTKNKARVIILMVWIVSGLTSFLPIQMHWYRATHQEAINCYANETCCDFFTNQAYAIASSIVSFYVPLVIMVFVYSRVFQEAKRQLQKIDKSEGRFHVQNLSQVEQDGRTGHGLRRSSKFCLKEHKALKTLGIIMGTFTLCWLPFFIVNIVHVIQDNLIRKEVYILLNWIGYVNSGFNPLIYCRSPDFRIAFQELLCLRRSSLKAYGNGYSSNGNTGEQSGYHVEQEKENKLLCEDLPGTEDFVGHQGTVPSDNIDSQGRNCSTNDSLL
β2AR-RlucII, sequence (P07550 whole entry): as above
β1AR-RlucII, sequence (P08588 whole entry): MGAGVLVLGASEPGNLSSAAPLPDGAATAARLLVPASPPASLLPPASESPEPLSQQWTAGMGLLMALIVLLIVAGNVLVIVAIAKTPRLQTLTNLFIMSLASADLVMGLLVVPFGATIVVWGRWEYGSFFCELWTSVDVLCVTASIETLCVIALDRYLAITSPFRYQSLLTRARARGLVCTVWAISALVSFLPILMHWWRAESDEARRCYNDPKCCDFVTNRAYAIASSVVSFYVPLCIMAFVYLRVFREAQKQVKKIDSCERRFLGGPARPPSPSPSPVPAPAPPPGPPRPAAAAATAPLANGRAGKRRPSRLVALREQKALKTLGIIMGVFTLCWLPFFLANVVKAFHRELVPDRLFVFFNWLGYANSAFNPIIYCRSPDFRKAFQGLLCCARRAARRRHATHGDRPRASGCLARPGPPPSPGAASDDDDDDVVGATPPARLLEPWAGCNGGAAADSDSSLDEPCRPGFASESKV

A word on the IC50: it is the point on the concentration scale where inhibition reaches its midpoint. In turn, `CCCCNCC(O)c1ccc(O)cc1` (stereo not shown) [Bamethane] gave an IC50 on β2AR (β2AR stable cells) of 31.6 µM. The EC50 result on β2AR-RlucII is given as “all compounds showed efficacy in recruiting Gαs to the receptor”.

The compound `CC(CCc1ccccc1)NC(C)C(O)c1ccc(O)cc1` (stereo not shown) [Buphenine] gave a 50% inhibitory concentration (IC50) on β2AR (β2AR stable cells) of 0.251 µM.

For the compound `CC(CCc1ccc(O)cc1)NCCc1ccc(O)c(O)c1` (stereo not shown) [Dobutamine], the IC50 on β2AR (β2AR stable cells) was 5.01 µM. On β1AR-RlucII, the EC50 entry is “DOB was slightly more efficacious for β1AR”.

In the case of `Oc1ccc(CC2NCCc3cc(O)c(O)cc32)cc1` (stereo not shown) [Higenamine], on β2AR (β2AR stable cells), the IC50 is 5.01 µM.

For the compound `CC(NCCc1ccc(O)cc1)C(O)c1ccc(O)cc1` (stereo not shown) [Ritodrine], the IC50 at β2AR (β2AR stable cells) is 1.26 µM.
